Assay results published in US12600717B2, “Tricyclic compounds as inhibitors of KRAS” (Incyte Corporation, priority 2021, dated 2026).
pIC50: −log10 of the molar value.

Assays:
[1] = molecular target: KRAS G12V (Homo sapiens, UniProt P01116, G12V); assay: GDP-GTP exchange assay (bodipy-GDP/GppNHp, SOS1), KRAS G12V; assay type: biochemical; settings: bodipy-loaded KRAS G12V 2.5 nM, 3 hours incubation after adding GppNHp-SOS1; read-out: G12V_exchange IC50
Protocol: (§1) The inhibitor potency of the exemplified compounds was determined in a fluorescence based guanine nucleotide exchange assay, which measures the exchange of bodipy-GDP (fluorescently labeled GDP) for GppNHp (Non-hydrolyzable GTP analog) to generate the active state of KRAS in the presence of SOS1 (guanine nucleotide exchange factor). Inhibitors were serially diluted in DMSO and a volume of 0.1 μL was transferred to the wells of a black low volume 384-well plate. 5 μL/well volume of bodipy-loaded KRAS G12D diluted to 2.5 nM in assay buffer (25 mM Hepes pH 7.5, 50 mM NaCl, 10 mM MgCl2 and 0.01% Brij-35) was added to the plate and pre-incubated with inhibitor for 4 hours at ambient temperature. Appropriate controls (enzyme with no inhibitor or with a G12D inhibitor) were included on the plate. The exchange was initiated by the addition of a 5 μL/well volume containing 1 mM GppNHp and 300 nM SOS1 in assay buffer. The 10 μL/well reaction concentration of the bodipy-loaded KRAS G12D, GppNHp, and SOS1 were 2.5 nM, 500 uM, and 150 nM, respectively. The reaction plates were incubated at ambient temperature for 2 hours, a time estimated for complete GDP-GTP exchange in the absence of inhibitor. For the KRAS G12V mutant, similar guanine nucleotide exchange assays were used with 2.5 nM as final concentration for the bodipy loaded KRAS proteins and 3 hours incubation after adding GppNHp-SOS1 mixture. A cyclic peptide described to selectively bind G12D mutant (Sakamoto et al., BBRC 484.3 (2017), 605-611) or internal compounds with confirmed binding were used as positive controls in the assay plates. Fluorescence intensities were measured on a PheraStar plate reader instrument (BMG Labtech) with excitation at 485 nm and emission at 520 nm.
(§2) Either GraphPad prism or Genedata Screener SmartFit was used to analyze the data. The IC50 values were derived by fitting the data to a four parameter logistic equation producing a sigmoidal dose-response curve with a variable Hill coefficient.
(§3) The symbol “†” indicates IC50≤100 nM, “††” indicates IC50>100 nM but ≤1 μM; and “†††” indicates IC50 is >1 μM but ≤5 μM, “††††” indicates IC50 is >5 μM but ≤10 μM. “NA” indicates IC50 not available.

[2] = molecular target: KRAS G12D (Homo sapiens, UniProt P01116, G12D); assay: GDP-GTP exchange assay (bodipy-GDP/GppNHp, SOS1), KRAS G12D; assay type: biochemical; settings: bodipy-loaded KRAS G12D 2.5 nM, 4 hours pre-incubation with inhibitor, 2 hours after GppNHp/SOS1; read-out: G12D_exchange IC50
Sequence of KRAS G12D (P01116 1-188 isoform P01116-2 G12D): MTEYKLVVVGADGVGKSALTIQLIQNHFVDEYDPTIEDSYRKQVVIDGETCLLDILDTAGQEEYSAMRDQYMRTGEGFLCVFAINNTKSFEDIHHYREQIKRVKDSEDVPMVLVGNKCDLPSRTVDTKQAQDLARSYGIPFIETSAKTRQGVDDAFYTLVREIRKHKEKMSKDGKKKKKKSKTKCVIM
Protocol: as §1, §2, §3

Sequence of KRAS G12V (P01116 1-188 isoform P01116-2 G12V): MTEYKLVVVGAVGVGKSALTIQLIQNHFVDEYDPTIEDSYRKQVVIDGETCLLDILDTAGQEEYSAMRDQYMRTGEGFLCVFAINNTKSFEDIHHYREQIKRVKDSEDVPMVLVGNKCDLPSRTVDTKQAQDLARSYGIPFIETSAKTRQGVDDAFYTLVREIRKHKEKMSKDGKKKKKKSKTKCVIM

Compound	pIC50 [1]	pIC50 [2]
CN(C)C(=O)CCc1nc2c(N3CC(N(C)C)C3)nc3c(F)c(-c4nc(N)ccc4C(F)(F)F)c(CCC#N)cc3c2n1C1C2CNC1C2 (single isomer, unassigned) [Example 32a, 3-(7-(6-amino-3-(trifluoromethyl)pyridin-2-yl)-1-endo-(2-azabicyclo[2.1.1]hexan-5-yl)-8-(2-cyanoethyl)-4-(3-(dimethylamino)azetidin-1-yl)-6-fluoro-1H-imidazo[4,5-c]quinolin-2-yl)-N,N-dimethylpropanamide]	5.00 to 5.30	6.00 to 7.00
CCc1nc2c(Oc3ccccc3)nc3c(F)c(-c4cc(O)cc5ccccc45)c(CCC#N)cc3c2n1C1C2CNC1C2 (single isomer, unassigned) [Example 24a, 3-(1-((endo)-2-Azabicyclo[2.1.1]hexan-5-yl)-2-ethyl-6-fluoro-7-(3-hydroxynaphthalen-1-yl)-4-phenoxy-1H-imidazo[4,5-c]quinolin-8-yl)propanenitrile]	6.00 to 7.00	≥ 7.00
CN(C)C(=O)CCc1nc2c(N3CC(N(C)C)C3)nc3c(F)c(-c4c(O)ccc(Cl)c4Cl)c(CCC#N)cc3c2n1C1C2CNC1C2 (centres unmarked) [Example 10, 3-(1-(2-azabicyclo[2.1.1]hexan-5-yl)-8-(2-cyanoethyl)-7-(2,3-dichloro-6-hydroxyphenyl)-4-(3-(dimethylamino)azetidin-1-yl)-6-fluoro-1H-imidazo[4,5-c]quinolin-2-yl)-N,N-dimethylpropanamide]	6.00 to 7.00	≥ 7.00
C[C@H](Oc1nc2c(F)c(-c3cccc4cccc(C#N)c34)c(Cl)cc2c2c1ncn2[C@H]1CCN(C(=O)C2CC2)[C@H](CC#N)C1)[C@@H]1CCCN1C [Example 43, 8-(8-chloro-1-((2S,4S)-2-(cyanomethyl)-1-(cyclopropanecarbonyl)piperidin-4-yl)-6-fluoro-4-((S)-1-((S)-1-methylpyrrolidin-2-yl)ethoxy)-1H-imidazo[4,5-c]quinolin-7-yl)-1-naphthonitrile]	6.00 to 7.00	≥ 7.00
CN(C)C(=O)CCc1nc2c(N3CC(N(C)C)C3)nc3c(F)c(-c4cccc5c4CC(F)(F)CC5)c(CCC#N)cc3c2n1[C@@H]1[C@@H]2CN[C@H]1C2 (relative stereo) [Example 33, 3-(1-endo-(2-azabicyclo[2.1.1]hexan-5-yl)-8-(2-cyanoethyl)-7-(7,7-difluoro-5,6,7,8-tetrahydronaphthalen-1-yl)-4-(3-(dimethylamino)azetidin-1-yl)-6-fluoro-1H-imidazo[4,5-c]quinolin-2-yl)-N,N-dimethylpropanamide]	5.30 to 6.00	≥ 7.00
CCc1nc2c(-c3ccc(=O)n(CC)c3)nc3c(F)c(-c4cc(O)cc5ccccc45)c(CCC#N)cc3c2n1C1C2CNC1C2 (single isomer, unassigned) [Example 18, 3-(1-((endo)-2-Azabicyclo[2.1.1]hexan-5-yl)-2-ethyl-4-(1-ethyl-6-oxo-1,6-dihydropyridin-3-yl)-6-fluoro-7-(3-hydroxynaphthalen-1-yl)-1H-imidazo[4,5-c]quinolin-8-yl)propanenitrile]	≥ 7.00	≥ 7.00
CN(C)C1CN(c2nc3c(F)c(-c4cc(O)cc5ccccc45)c(CCC#N)cc3c3c2nc(-c2ccc4[nH]ncc4c2)n3C2C3CNC2C3)C1 (single isomer, unassigned) [Example 38a]	≥ 7.00	6.00 to 7.00
CCc1nc2c(-c3ncco3)nc3c(F)c(-c4cc(O)cc5ccccc45)c(CCC#N)cc3c2n1C1C2CNC1C2 (single isomer, unassigned) [Example 20a, 3-(1-((endo)-2-Azabicyclo[2.1.1]hexan-5-yl)-2-ethyl-6-fluoro-7-(3-hydroxynaphthalen-1-yl)-4-(oxazol-2-yl)-1H-imidazo[4,5-c]quinolin-8-yl)propanenitrile]	6.00 to 7.00	≥ 7.00
CC(=O)N1CC[C@H](n2c(=O)[nH]c3c(O[C@@H](C)[C@@H]4CCCN4C)nc4c(F)c(-c5cccc6cccc(C#N)c56)c(Cl)cc4c32)C[C@H]1CC#N [Example 45, 8-(1-((2S,4S)-1-acetyl-2-(cyanomethyl)piperidin-4-yl)-8-chloro-6-fluoro-4-((S)-1-((S)-1-methylpyrrolidin-2-yl)ethoxy)-2-oxo-2,3-dihydro-1H-imidazo[4,5-c]quinolin-7-yl)-1-naphthonitrile]	≥ 7.00	6.00 to 7.00

Continued, values first:

pIC50 [1]	pIC50 [2]	Compound
≥ 7.00	≥ 7.00	CN(C)C1CN(c2nc3c(F)c(-c4cc(O)cc5ccccc45)c(CCC#N)cc3c3c2nc(CCc2ncccn2)n3C2C3CNC2C3)C1 (single isomer, unassigned) [Example 37, 3-(1-((endo)-2-azabicyclo[2.1.1]hexan-5-yl)-4-(3-(dimethylamino)azetidin-1-yl)-6-fluoro-7-(3-hydroxynaphthalen-1-yl)-2-(2-(pyrimidin-2-yl)ethyl)-1H-imidazo[4,5-c]quinolin-8-yl)propanenitrile]
≥ 7.00	≥ 7.00	CN(C)C(=O)CCc1nc2c(N3CC(N(C)C)C3)nc3c(F)c(-c4cc(O)cc5ccccc45)c(Cn4cccn4)cc3c2n1[C@@H]1[C@@H]2CN[C@H]1C2 (relative stereo) [Example 9, 3-(8-((1H-pyrazol-1-yl)methyl)-1-((endo)-2-azabicyclo[2.1.1]hexan-5-yl)-4-(3-(dimethylamino)azetidin-1-yl)-6-fluoro-7-(3-hydroxynaphthalen-1-yl)-1H-imidazo[4,5-c]quinolin-2-yl)-N,N-dimethylpropanamide]
≥ 7.00	6.00 to 7.00	CN(C)C1CN(c2nc3c(F)c(-c4cc(O)cc5ccccc45)c(CCC#N)cc3c3c2nc(-c2ccn(Cc4ccccc4)n2)n3C2C3CNC2C3)C1 (single isomer, unassigned) [Example 36a, 3-(2-(1-benzyl-1H-pyrazol-3-yl)-1-((endo)-2-azabicyclo[2.1.1]hexan-5-yl)-4-(3-(dimethylamino)azetidin-1-yl)-6-fluoro-7-(3-hydroxynaphthalen-1-yl)-1H-imidazo[4,5-c]quinolin-8-yl)propanenitrile]
≥ 7.00	≥ 7.00	CN(C)C1CN(c2nc3c(F)c(-c4cc(O)cc5ccccc45)c(CCC#N)cc3c3c2nc(-c2ccn(-c4ccccc4)n2)n3C2C3CNC2C3)C1 (single isomer, unassigned) [Example 34a, 3-(1-((endo)-2-azabicyclo[2.1.1]hexan-5-yl)-4-(3-(dimethylamino)azetidin-1-yl)-6-fluoro-7-(3-hydroxynaphthalen-1-yl)-2-(1-phenyl-1H-pyrazol-3-yl)-1H-imidazo[4,5-c]quinolin-8-yl)propanenitrile]
6.00 to 7.00	≥ 7.00	CN(C)C1CN(c2nc3c(F)c(-c4cc(O)cc5ccccc45)c(CCC#N)cc3c3c2nc(C2CC2)n3C2C3CNC2C3)C1 (single isomer, unassigned) [Example 25a, 3-(1-((endo)-2-Azabicyclo[2.1.1]hexan-5-yl)-2-cyclopropyl-4-(3-(dimethylamino)azetidin-1-yl)-6-fluoro-7-(3-hydroxynaphthalen-1-yl)-1H-imidazo[4,5-c]quinolin-8-yl)propanenitrile]
≥ 7.00	≥ 7.00	CC(=O)N1CCN(C(=O)CCc2nc3c(N4CC(N(C)C)C4)nc4c(F)c(-c5cc(O)cc6ccccc56)c(CCC#N)cc4c3n2C2C3CNC2C3)CC1 (single isomer, unassigned) [Example 4a, 3-(2-(3-(4-acetylpiperazin-1-yl)-3-oxopropyl)-1-((endo)-2-azabicyclo[2.1.1]hexan-5-yl)-4-(3-(dimethylamino)azetidin-1-yl)-6-fluoro-7-(3-hydroxynaphthalen-1-yl)-1H-imidazo[4,5-c]quinolin-8-yl)propanenitrile]
5.00 to 5.30	6.00 to 7.00	CN(C)C(=O)CCc1nc2c(N3CC(N(C)C)C3)nc3c(-c4cnn(-c5ccccn5)c4)c(-c4cc(O)cc5ccccc45)c(CCC#N)cc3c2n1C1C2CNC1C2 (stereo not drawn) [Example 13, 3-(1-((endo)-2-azabicyclo[2.1.1]hexan-5-yl)-8-(2-cyanoethyl)-4-(3-(dimethylamino)azetidin-1-yl)-7-(3-hydroxynaphthalen-1-yl)-6-(1-(pyridin-2-yl)-1H-pyrazol-4-yl)-1H-imidazo[4,5-c]quinolin-2-yl)-N,N-dimethylpropanamide]
